Test results from US9161986B2, “Nanoparticle containing prostaglandin I2 derivative” (LTT BIO-PHARMA CO., LTD., priority 2011, dated 2015).

Columns and labels:
[1] = Formation of insoluble complex in presence or absence of ferric chloride; assay type: physicochemical; conditions: various amounts of diethanolamine
Method: To confirm this, the pH change of the solution and the percentage of beraprost sodium remaining in its supernatant when various amounts of diethanolamine (DEA) was added to the solution in the presence or absence of ferric chloride were examined.
Specifically, the pH of the solution was adjusted by adding diethanolamine to the aqueous solution of an iron ion of a specific concentration (455 mM) and beraprost sodium (32.5 mM) so that various pHs of the solution were obtained. The solution (suspension) was centrifuged at 16,500 g for 10 minutes, and the amount of beraprost sodium dissolved in the supernatant was determined by HPLC. The pH of the solution was also measured.
On the other hand, the pH of the solution was adjusted by adding diethanolamine to the aqueous solution of beraprost sodium (32.5 mM) in which hydrochloric acid was used instead of an iron ion of a specific concentration so that various pHs of the solution were obtained. The solution (suspension) was centrifuged at 16,500 g for 10 minutes, and the amount of beraprost sodium dissolved in the supernatant was determined by HPLC. The pH of the solution was also measured.

[2] = Evaluation of drug retention in blood after intravenous administration; assay type: in vivo, male Wister rats; conditions: intravenous via tail vein, rats, n=3; FIG. 5
Method: Either beraprost sodium nanoparticles or beraprost sodium (comparative example) was administered to male Wister rats (5 week old, n=3) intravenously via a tail vein. After administration, a tail vein different from the administration site was cut with a scalpel at specified times, and blood samples were collected by using blood collection tubes (heparin-treated). A sample solution was prepared by adding 50 μL, of the blood to a microfuge tube containing 1,4-dioxane (150 μL). The sample solution was centrifuged (13,200 rpm, 4° C., and 10 minutes), and then, beraprost sodium contained in the supernatant was determined by HPLC.

cAMP = test: Continuous increase of plasma cAMP after intravenous administration (cAMP ELISA); assay type: in vivo, male Wister rats; conditions: intravenous via tail vein, rats, n=2; FIG. 6
Method: Prostacyclin leads to relaxation of vascular smooth muscle and exerts a dilation effect on a pulmonary vessel by activating adenyl cyclase via a prostacyclin receptor on the vascular smooth muscle and increasing the concentration of cAMP. Therefore, the present inventors investigated whether cAMP increased continuously when the beraprost sodium-containing nanoparticle of the present invention was administered. Either beraprost sodium-containing nanoparticles or beraprost sodium (comparative example) was administered to male Wister rats (5 week old, n=2) intravenously via a tail vein. After administration, a tail vein different from the administration site was cut with a scalpel at specified times, and blood samples were collected by using blood collection tubes. […] This blood plasma sample was diluted as appropriate and cAMP contained in the […] was determined by using a cAMP ELISA kit. The method of measurement followed the protocol made by Assay Designs Inc.

[3] = tested on: pulmonary vascular resistance; conditions: treatment for three months, clinical trials; cited from earlier work
[4] = in vivo; cited from earlier work
[5] = oral; cited from earlier work
[6] = tested on: primary pulmonary hypertension; conditions: primary pulmonary hypertension group treated with epoprostenol; previous studies; cited from earlier work
[7] = measure of chemical stability; cited from earlier work

Row | Structure (SMILES) | formation of insoluble complex ([1]; in the absence of ferric chloride (hydrochloric acid instead), FIG. 3) | formation of insoluble complex ([1]; in the presence of ferric chloride, FIG. 2) | drug retention in the blood [2] | continuous increase of cAMP in the plasma (cAMP) | pulmonary vascular resistance [3] | biological half-life [4] | half-life of the blood concentration [5] [h] | three-year survival rate [6] | chemical half-life [7]
1 | CC#CCC(C)[C@H](O)/C=C/[C@@H]1[C@H]2c3cccc(CCCC(=O)[O-])c3O[C@H]2C[C@H]1O.[Na+] (stereo partly drawn) [beraprost sodium] | no insoluble complex was formed | formation of an insoluble complex | little beraprost sodium existed in the blood as early as 3 hours after its administration | no continuous increase of cAMP was observed | significantly decreased the pulmonary vascular resistance | about 1.1 hours | 1.1 |  | 
2 | CCCCC[C@H](O)/C=C/[C@@H]1[C@H]2C/C(=C/CCCC(=O)O)O[C@H]2C[C@H]1O [epoprostenol] |  |  |  |  |  |  |  | about 70% | about 10 minutes
